# Molecular target: T1, HpxJ (Klebsiella michiganensis, UniProt B5B0L4)
# T1 sequence (B5B0L4 1-413): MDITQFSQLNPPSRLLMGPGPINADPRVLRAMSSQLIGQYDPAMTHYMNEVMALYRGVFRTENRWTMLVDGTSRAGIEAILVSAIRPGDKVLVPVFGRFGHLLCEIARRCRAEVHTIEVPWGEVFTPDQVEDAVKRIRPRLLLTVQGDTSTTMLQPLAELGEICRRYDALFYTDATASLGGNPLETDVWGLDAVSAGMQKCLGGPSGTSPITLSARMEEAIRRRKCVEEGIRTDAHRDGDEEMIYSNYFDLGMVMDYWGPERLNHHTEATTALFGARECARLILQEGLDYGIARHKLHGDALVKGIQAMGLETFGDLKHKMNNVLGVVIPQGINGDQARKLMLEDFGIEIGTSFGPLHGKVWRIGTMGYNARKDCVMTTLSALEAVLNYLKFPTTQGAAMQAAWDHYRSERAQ
# Experiment: pre-steady-state PLP to PMP conversion
# Assay type: biochemical
# Conditions: amino donor; glyoxylate as acceptor in HPLC assay
smiles,measurement,value
N[C@@H](CC(=O)O)C(=O)O [aspartate],rate of first half reaction,"an order of magnitude faster than the next fastest substrate, aspartate"

# — paper PMC2912414 (Biochemistry, 2010)
